Reference: patent US8771953B2, “Evaluation of the potential risk of drug induced mood disturbance and suicide: use of a dedicated platform” (Biocortech, priority 2008, dated 2014)
Where two headings read alike, the source gives them in different places. Marks after values point to notes of the source that are not given here.

What was measured:
5-HT2cR mRNA = experiment: Editing profile of 5-HT2cR mRNA isoforms by CE-SSCP (nested PCR) in SH-SY5Y cells; enzyme activity indexes worked out from the profile; assay type: cell-based, human; conditions: SH-SY5Y, 10 micromolar, 24 hours; for activation at 10 µM: Homo sapiens
ADAR1a mRNA = experiment: Q-PCR of ADAR1a mRNA expression in SH-SY5Y cells; assay type: cell-based; conditions: Homo sapiens, 10 micromolar, 24 hours, read-out: QPCR: RNA expresion (% of variation) ADAR1a
From the text: ADAR1a RNA Expression in SH-SY5Y cells (Q-PCR, Applied TaqMan probes ref: Hs 01020780_m1).
(§1) The SH-SY5Y Human neuroblastoma cell line was purchased from ECACC (EC94030304 from the European Collection of Cell Cultures (ECACC)). The cell line SH-SY5Y is a thrice-cloned neuroblastoma, originally from SK-N-SH and first reported in 1978. A neuroblast-like subclone of SK-N-SH, named SH-SY, was subcloned as SH-SY5, which was subcloned again as SH-SY5Y (Biedler J L et al. Cancer Res. 1978; 38:3751-7). Cells were cultured in high glucose D-MEM medium (Sigma, ref D6546) supplemented with 10% dialysed FCS (PAA, ref. A15-507, lot A50708-0050), 2 mM Glutamine (Sigma, G7513) and a 1× mix of Antibiotic-Antimycotic Stabilized (Sigma, ref. A5955) at 37° C. under a humidified atmosphere of 5% CO2. The day preceeding drug or hIFNα treatment, SH-SY5Y cells were plated in 6-well plates at a density of 10^6 cells/well. One 6-well plate was used per experimental condition (concentration or treatment duration). The day after plating, culture medium was removed and cells were incubated for 24 hours with a 10 μM solution of the compound to be tested molecules or a 1000 IU/ml solution of hIFNα (PBL biomedical laboratories). For hIFNα dose-response experiment cells were incubated with 1, 10, 100, and 1000 IU/ml of hIFNα solutions. For hIFNα time-course experiment cells were treated for 24, 48, or 72 hours with a 1000 IU/ml solution of hIFNα. After the different treatments, cells were directly lysed in RLT lysis buffer and total RNA purified according to manufacturer's protocol (Qiagen, RNeasy Plus mini kit, ref. 74134). Total RNA was then reverse transcribed with Thermoscript RT-PCR system Plus Taq (Invitrogen, 11146-032) and the resulting cDNA used for CE-SSCP and quantitative real-time PCR.
(§2) In order to quantify levels of 5-HT2CR, ADAR1 and ADAR2 mRNA expression in SH-SY5Y cells or in prefrontal cortex, total blood and skin of Balb/cJ mice, first-strand cDNA was synthesized by reverse transcription and subjected to TaqMan quantitative real-time PCR analysis (Applied Biosystems). All probes and primers used for the quantitative PCRs were from Applied Bio systems (Gene Expression Assays, Assay-On-Demand) (see Table 1, Applied Biosystems primers and probes references): […]
(§3) Human GAPDH (product no. 4326317E; Applied Biosystems) or mouse GAPDH (product no. 4352339E; Applied Biosystems) were included in each multiplex PCR as an internal control. Real-time PCR and subsequent analysis were performed with a 48-well block StepOne RT PCR system (Applied Biosystems). Quantification of target gene expression in all samples was normalized to GAPDH expression by the equation Ct (target)−Ct (GAPDH)=ΔCt, where Ct is the threshold cycle number. The mean ΔCt value of samples from untreated mice or cells was determined and used as a reference point for the samples corresponding to treated animals or cells. Differences between untreated and treated animals or cells, including individual variation were calculated by the equation (ΔCt (individual treated samples)−ΔCt (mean of untreated samples)=ΔΔCt). Changes in target gene expression (n-fold) in each sample were calculated by 2^−ΔΔCt, from which the means and standard deviations (SD) were derived.
(§4) The SH-SY5Y Human neuroblastoma cell line was purchased from ECACC. Cells were cultured in high glucose D-MEM medium (Sigma, ref. D6546) supplemented with 10% dialysed FCS (PAA, ref. A15-507, lot A50708-0050), 2 mM Glutamine (Sigma, ref. G7513) and a 1× mix of Antibiotic-Antimycotic Stabilized (Sigma, ref. A5955) at 37° C. under a humidified atmosphere of 5% CO2. The day preceeding hIFNα or drug treatment, SH-SY5Y cells were plated in 6-well plates (Corning, Multiwell Plate, 6 well, Corning CellBIND Surface, ref 3335) at a density of 5; 7 or 9·10^6 cells/well for a 72-, 48- or 24-hour treatment respectively. Six or eight wells of 6-well plates were used per experimental condition (control, concentration or treatment duration).

ADAR1b mRNA = experiment: Q-PCR of ADAR1b mRNA expression in SH-SY5Y cells; assay type: cell-based; conditions: Homo sapiens, 10 micromolar, 24 hours, read-out: QPCR: RNA expresion (% of variation) ADAR1b
Experimental: as §1, §2, §3, §4

ADAR2 mRNA = experiment: Q-PCR of ADAR2 mRNA expression in SH-SY5Y cells; assay type: cell-based; conditions: Homo sapiens, 10 micromolar, 24 hours, read-out: QPCR: RNA expresion (% of variation) ADAR2
Experimental: as §1, §2, §3, §4

[1] = read-out: ENZYME ACTIVIY INDEX (% of variation) ADAR1
[2] = read-out: ENZYME ACTIVIY INDEX (% of variation) ADAR1 + 2
[3] = read-out: ENZYME ACTIVIY INDEX (% of variation) ADAR2
[4] = read-out: ENZYME ACTIVIY INDEX (% of variation) ADARI
[5] = read-out: ENZYME ACTIVIY INDEX (% of variation) ADARII
[6] = read-out: ENZYME ACTIVIY INDEX (% of variation) NE

SMILES	activation at 10 µM (5-HT2cR mRNA; [1]) [%]	activation at 10 µM (5-HT2cR mRNA; [2]) [%]	activation at 10 µM (5-HT2cR mRNA; [3]) [%]	activation at 10 µM (5-HT2cR mRNA; [4]) [%]	activation at 10 µM (5-HT2cR mRNA; [5]) [%]	activation at 10 µM (5-HT2cR mRNA; [6]) [%]	% change in ADAR1a mRNA expression at 10 µM (ADAR1a mRNA) [%]	percent change in mRNA expression at 10 µM (ADAR1b mRNA) [%]	percent change in ADAR2 mRNA expression at 10 µM (ADAR2 mRNA) [%]	ENZYME ACTIVIY INDEX (% of variation) EC (5-HT2cR mRNA)
CC(NC(C)(C)C)C(=O)c1cccc(Cl)c1 (stereo not shown) [Bupropion]	-16.3	42.6	68.9	-8.9	34.7	5.3	-66	-51	-40	
NC(=O)N1c2ccccc2CC(=O)c2ccccc21 [Oxcarbazepine]	1.1	-25.6	-25.9	-3.9	-25.6	4.8	-28	-18	-15	−65.2* %
